Measurements taken from publication PMC6458995, “MAP4K4 Inhibition Promotes Survival of Human Stem Cell-Derived Cardiomyocytes and Reduces Infarct Size In Vivo” (Cell Stem Cell, 2019).

Tests used:
Assay in all cases: Dundee kinase panel
Type in all cases: biochemical
Conditions in all cases: for remaining activity at 1 µM: read-out: residual activity
EPH-B4 = biological target: T1, EPH-B4 (Homo sapiens, UniProt P54760)
T1 construct: lines 1-140) and Reaction Biology
T1 sequence (P54760 16-987): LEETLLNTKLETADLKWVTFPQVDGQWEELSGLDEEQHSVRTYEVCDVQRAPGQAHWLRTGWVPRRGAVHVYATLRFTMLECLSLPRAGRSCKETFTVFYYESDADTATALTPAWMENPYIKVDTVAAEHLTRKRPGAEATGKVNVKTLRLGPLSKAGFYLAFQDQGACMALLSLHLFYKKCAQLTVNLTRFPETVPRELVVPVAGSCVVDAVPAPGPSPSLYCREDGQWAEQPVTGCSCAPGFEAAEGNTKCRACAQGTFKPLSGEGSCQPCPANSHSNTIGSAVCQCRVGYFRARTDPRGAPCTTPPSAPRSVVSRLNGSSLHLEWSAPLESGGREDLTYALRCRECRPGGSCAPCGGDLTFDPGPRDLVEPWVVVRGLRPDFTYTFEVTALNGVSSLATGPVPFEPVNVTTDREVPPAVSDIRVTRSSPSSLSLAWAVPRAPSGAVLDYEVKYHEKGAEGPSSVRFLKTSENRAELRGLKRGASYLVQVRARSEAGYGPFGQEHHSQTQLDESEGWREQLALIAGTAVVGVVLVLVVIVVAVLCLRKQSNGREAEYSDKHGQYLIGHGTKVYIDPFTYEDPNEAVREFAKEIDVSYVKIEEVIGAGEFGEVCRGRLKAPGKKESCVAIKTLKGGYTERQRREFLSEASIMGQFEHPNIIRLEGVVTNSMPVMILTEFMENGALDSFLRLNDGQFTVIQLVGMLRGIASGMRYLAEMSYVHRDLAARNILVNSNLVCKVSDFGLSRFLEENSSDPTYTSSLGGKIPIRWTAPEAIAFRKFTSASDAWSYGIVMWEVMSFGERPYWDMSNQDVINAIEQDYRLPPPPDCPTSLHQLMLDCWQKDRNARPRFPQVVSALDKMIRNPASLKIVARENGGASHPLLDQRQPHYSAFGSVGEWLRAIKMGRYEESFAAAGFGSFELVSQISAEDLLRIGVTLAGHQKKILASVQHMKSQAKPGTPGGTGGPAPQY
Description: (§1) Compounds were screened at 1 μM. For key hits, pIC50 values were then determined by HTRF as above. […] Stability in mouse and human liver microsomes was determined by Cyprotex.

PKCγ = biological target: T2, PKCγ (Homo sapiens, UniProt P05129)
T2 construct: lines 1-140) and Reaction Biology
Description: as §1

MEKK1 = biological target: T3, MEKK1 (Homo sapiens, UniProt Q13233)
T3 construct: lines 1-140) and Reaction Biology
Description: as §1

DAPK1 = biological target: T4, DAPK1 (Homo sapiens, UniProt P53355)
T4 construct: lines 1-140) and Reaction Biology
Description: as §1

SIK2 = biological target: T5, SIK2 (Homo sapiens, UniProt Q9H0K1)
T5 construct: lines 1-140) and Reaction Biology
Description: as §1

FGF-R1 = biological target: T6, FGF-R1 (Homo sapiens, UniProt P11362)
T6 construct: lines 1-140) and Reaction Biology
Description: as §1

GCK = biological target: T7, GCK (Homo sapiens, UniProt Q12851)
T7 construct: lines 1-140) and Reaction Biology
T7 sequence (Q12851 1-820): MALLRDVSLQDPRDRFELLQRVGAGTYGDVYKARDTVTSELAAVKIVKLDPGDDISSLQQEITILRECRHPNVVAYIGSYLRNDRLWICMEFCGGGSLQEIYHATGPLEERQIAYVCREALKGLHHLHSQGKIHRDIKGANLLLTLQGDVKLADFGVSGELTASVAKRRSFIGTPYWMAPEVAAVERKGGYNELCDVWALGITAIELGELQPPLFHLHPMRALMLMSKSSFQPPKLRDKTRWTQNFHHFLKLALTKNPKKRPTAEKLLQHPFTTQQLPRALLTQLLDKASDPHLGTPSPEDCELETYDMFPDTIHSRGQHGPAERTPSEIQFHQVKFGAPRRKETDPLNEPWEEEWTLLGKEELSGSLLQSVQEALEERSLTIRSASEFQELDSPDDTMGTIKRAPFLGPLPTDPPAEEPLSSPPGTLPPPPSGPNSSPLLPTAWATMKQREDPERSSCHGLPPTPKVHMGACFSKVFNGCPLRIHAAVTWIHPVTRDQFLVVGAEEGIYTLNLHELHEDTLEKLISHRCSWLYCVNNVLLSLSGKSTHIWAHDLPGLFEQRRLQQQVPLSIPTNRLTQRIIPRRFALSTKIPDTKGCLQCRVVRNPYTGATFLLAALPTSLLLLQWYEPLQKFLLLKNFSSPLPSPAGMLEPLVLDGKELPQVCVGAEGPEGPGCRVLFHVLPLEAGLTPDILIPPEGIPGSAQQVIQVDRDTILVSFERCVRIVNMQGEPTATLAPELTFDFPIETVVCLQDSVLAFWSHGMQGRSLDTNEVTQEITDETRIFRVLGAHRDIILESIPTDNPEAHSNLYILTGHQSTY
Description: as §1

GSK3b = biological target: T8, GSK3b (Homo sapiens, UniProt P49841)
T8 construct: lines 1-140) and Reaction Biology
Description: as §1

PKCa = biological target: T9, PKCa (Homo sapiens, UniProt P17252)
T9 construct: lines 1-140) and Reaction Biology
Description: as §1

T4 sequence (P53355 whole entry): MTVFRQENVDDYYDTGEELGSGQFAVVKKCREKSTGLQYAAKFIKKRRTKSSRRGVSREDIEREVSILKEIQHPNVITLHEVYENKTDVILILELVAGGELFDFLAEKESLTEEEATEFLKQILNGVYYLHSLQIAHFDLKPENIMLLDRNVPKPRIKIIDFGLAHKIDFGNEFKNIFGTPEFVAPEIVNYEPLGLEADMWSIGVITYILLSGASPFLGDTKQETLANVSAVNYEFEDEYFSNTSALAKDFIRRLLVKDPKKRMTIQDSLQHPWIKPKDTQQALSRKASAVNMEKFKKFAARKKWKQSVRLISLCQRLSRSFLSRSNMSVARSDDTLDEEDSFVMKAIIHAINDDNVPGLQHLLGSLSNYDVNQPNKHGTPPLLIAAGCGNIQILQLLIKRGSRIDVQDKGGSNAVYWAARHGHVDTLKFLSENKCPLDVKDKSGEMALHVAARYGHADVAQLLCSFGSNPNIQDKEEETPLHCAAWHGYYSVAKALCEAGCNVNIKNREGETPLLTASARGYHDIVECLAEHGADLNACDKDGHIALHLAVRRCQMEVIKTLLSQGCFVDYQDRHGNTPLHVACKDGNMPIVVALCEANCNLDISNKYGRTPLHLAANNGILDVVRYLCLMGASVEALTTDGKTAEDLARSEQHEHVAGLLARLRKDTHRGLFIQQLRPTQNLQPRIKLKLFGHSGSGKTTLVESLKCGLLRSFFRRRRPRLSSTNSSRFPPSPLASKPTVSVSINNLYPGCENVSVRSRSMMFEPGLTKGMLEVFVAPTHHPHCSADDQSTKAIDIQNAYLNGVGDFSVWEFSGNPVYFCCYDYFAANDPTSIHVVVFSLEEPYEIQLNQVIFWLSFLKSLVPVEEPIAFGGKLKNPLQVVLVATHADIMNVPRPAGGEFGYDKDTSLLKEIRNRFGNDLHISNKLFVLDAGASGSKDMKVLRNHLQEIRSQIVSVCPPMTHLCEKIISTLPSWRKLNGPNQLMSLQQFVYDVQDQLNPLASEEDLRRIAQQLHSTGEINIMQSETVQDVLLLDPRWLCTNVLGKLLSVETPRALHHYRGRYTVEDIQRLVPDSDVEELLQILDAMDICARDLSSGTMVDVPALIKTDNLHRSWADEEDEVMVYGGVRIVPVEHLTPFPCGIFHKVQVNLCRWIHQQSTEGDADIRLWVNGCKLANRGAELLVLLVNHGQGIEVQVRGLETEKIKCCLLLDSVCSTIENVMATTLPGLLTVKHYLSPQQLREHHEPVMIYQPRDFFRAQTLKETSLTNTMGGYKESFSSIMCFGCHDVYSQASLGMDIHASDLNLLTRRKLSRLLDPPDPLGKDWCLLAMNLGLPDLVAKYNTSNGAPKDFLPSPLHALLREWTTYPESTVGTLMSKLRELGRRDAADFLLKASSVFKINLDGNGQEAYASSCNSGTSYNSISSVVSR
T8 sequence (P49841 whole entry): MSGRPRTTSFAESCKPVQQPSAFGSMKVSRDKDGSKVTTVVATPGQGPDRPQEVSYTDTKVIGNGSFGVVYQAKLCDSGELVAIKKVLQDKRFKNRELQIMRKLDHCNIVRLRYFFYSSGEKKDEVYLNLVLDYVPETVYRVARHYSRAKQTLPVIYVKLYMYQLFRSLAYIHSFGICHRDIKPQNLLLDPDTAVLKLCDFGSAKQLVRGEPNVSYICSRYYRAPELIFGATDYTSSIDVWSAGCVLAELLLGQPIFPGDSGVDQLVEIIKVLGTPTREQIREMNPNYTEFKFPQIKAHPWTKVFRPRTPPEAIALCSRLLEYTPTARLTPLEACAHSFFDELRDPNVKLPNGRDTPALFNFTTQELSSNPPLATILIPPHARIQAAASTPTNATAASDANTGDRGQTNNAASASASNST
T3 sequence (Q13233 whole entry): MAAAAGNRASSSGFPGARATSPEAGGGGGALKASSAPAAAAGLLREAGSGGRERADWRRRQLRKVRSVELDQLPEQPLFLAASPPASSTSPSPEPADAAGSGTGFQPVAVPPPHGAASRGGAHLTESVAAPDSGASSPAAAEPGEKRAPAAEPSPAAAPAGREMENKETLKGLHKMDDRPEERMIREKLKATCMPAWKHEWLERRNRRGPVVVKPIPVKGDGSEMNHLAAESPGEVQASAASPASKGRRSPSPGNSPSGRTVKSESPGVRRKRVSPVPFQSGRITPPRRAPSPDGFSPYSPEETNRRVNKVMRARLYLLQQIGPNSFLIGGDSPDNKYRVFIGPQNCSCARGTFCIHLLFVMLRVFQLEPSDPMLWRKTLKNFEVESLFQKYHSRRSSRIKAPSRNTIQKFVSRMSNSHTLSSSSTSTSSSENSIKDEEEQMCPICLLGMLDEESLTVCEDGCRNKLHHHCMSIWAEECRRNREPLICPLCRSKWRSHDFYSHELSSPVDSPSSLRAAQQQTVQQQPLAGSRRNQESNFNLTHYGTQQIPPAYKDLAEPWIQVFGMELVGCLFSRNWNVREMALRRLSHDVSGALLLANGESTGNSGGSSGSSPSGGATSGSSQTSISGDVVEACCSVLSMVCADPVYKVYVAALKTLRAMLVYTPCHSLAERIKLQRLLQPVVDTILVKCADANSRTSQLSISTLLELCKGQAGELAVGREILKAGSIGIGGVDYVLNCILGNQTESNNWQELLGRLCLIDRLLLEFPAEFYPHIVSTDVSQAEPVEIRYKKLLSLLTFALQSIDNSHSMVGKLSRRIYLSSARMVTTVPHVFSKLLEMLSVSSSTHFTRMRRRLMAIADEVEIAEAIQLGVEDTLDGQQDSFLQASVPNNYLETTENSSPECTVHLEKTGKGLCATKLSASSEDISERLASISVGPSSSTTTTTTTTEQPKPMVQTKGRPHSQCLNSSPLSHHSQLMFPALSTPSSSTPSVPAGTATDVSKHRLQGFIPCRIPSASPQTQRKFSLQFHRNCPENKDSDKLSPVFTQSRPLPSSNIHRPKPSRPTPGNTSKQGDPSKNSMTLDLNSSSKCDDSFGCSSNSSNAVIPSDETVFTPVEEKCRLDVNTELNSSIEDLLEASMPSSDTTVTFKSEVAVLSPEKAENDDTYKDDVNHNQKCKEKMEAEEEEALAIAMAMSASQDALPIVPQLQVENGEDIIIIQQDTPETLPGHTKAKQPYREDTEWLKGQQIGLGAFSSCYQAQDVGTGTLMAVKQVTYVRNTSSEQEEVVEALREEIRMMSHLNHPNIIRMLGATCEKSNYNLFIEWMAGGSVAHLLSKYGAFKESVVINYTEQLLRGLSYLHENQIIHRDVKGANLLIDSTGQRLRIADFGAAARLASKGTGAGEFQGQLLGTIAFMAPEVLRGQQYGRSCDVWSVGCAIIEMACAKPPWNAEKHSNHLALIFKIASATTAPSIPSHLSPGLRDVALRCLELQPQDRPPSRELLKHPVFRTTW
T5 sequence (Q9H0K1 whole entry): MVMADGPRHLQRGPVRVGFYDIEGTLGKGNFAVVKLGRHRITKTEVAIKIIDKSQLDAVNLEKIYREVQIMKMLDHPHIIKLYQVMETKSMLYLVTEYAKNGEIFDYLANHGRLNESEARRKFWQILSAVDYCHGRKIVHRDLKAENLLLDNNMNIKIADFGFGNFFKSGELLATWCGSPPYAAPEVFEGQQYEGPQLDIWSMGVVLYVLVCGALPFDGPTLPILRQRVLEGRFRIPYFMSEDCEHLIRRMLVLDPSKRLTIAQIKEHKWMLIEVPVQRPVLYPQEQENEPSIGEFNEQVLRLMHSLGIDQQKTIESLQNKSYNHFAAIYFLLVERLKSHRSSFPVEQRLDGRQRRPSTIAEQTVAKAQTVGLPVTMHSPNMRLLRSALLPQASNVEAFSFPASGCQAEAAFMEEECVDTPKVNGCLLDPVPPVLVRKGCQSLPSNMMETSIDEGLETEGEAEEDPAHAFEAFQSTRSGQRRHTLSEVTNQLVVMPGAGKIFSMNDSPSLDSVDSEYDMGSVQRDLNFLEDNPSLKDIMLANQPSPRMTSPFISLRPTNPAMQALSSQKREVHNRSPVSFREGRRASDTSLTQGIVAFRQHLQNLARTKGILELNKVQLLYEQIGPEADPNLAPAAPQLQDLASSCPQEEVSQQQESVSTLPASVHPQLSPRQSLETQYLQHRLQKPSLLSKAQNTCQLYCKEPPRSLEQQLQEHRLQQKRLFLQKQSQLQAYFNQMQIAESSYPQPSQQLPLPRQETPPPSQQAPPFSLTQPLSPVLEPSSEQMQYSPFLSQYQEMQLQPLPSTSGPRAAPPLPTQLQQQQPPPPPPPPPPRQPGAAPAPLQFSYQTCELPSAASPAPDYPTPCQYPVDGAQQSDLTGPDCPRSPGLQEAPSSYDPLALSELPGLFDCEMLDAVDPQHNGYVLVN

| Compound | remaining activity at 1 µM (EPH-B4) [%] | remaining activity at 1 µM (PKCγ) [%] | remaining activity at 1 µM (MEKK1) [%] | remaining activity at 1 µM (DAPK1) [%] | remaining activity at 1 µM (SIK2) [%] | remaining activity at 1 µM (FGF-R1) [%] | remaining activity at 1 µM (GCK) [%] | remaining activity at 1 µM (GSK3b) [%] | remaining activity at 1 µM (PKCa) [%] | residual activity (EPH-B4; 1 μM) [%] | residual activity (PKCγ; 1 μM) [%] | residual activity (MEKK1; 1 μM) [%] | residual activity (DAPK1; 1 μM) [%] | residual activity (SIK2; 1 μM) [%] | residual activity (FGF-R1; 1 μM) [%] | residual activity (GCK; 1 μM) [%] | residual activity (GSK3b; 1 μM) [%] | residual activity (PKCa; 1 μM) [%] |
| --- | --- | --- | --- | --- | --- | --- | --- | --- | --- | --- | --- | --- | --- | --- | --- | --- | --- | --- |
| O=C1Cc2c([nH]c3ccc(Br)cc23)-c2ccccc2N1 [Kenpaullone] | 85 | 105 | 5 | 82 | 13 | 108 | 95 | 6 | 94 | – | – | – | – | – | – | – | – | – |
| O=C1Nc2ccc(I)cc2/C1=C/c1cc(Br)c(O)c(Br)c1 [GW5074] | 94 | 100 | 5 | 29 | 24 | 89 | 60 | 42 | 85 | – | – | – | – | – | – | – | – | – |
| Nc1ncc(C(=O)NC2CN(C(=O)C3CC3)C2)c2ccc(-c3cccc(F)c3)nc12 [GNE-495] | – | – | – | – | – | – | – | – | – | 106 | 74 | 87 | 126 | 102 | 119 | 18 | 69 | 50 |
| Oc1ncnc2c1c(-c1ccccc1)cn2-c1ccccc1 [F1386-0303, 5,7-diphenyl-7H-pyrrolo[2,3-d]pyrimidin-4-ol] | 102 | 105 | 97 | 104 | 99 | 99 | 39 | 127 | 70 | – | – | – | – | – | – | – | – | – |
| COCCOc1ccc(-c2cn(-c3ccccc3)c3nc[nH]c(=O)c23)cc1 [DMX-5804, 5-[4-(2-methoxy-ethoxy)-phenyl]-7-phenyl-3,7-dihydro-pyrrolo[2,3-d]pyrimidin-4-one] | 100 | 94 | 111 | 133 | 90 | 69 | 36 | 102 | 116 | – | – | – | – | – | – | – | – | – |
